Tested on: 677734-321-R-J1-PDC complex spheroid viability
Experiment: Anticancer human tumor 677734-321-R-J1-PDC patient-derived soft tissue sarcoma cell line growth inhibition [POLQ]
Conditions: for IC50: curve of first compound; for viability, T/C: stronger effect = lower value
Procedure: Multicellular complex tumor spheroid response to Polymerase (POL) inhibitors (novobiocin, ART-558, RP6685) in combination with a variety of drugs and investigational agents in selected tumor cell lines
The POL inhibitors (novobiocin, ART-558, and RP6685) were evaluated both individually and in combination with standard of care and investigational anticancer small molecules within a complex spheroid model of solid tumors. . Complex spheroids include a stromal component modeled by human endothelial cells (HUVEC) and fibroblasts modeled by human mesenchymal stem cells (MSCs). The concentration ranges selected for each drug and investigational agent were based upon clinically achievable concentrations if the clinical Cmax of the agent was known.
Compounds. The drugs and investigational agents: novobiocin (NSC847541), ART-558 (NSC835418), RP-6685 (NSC848927), peposertib (NSC802822), ceralasertib (NSC780249), elimusertib (NSC800525), camonsertib (NSC841442), AZD-1390 (NSC803789), olaparib (NSC753686), talazoparib (NSC767125), rucaparib (NSC756644), sotorasib (NSC818433), MRTX-1133 (NSC836407), SN-38 (NSC673596), topotecan (NSC609699), epotoside (NSC141540), doxorubicin (NSC123127), gemcitabine (NSC613327), 5-fluorouracil (NSC19893), paclitaxel (NSC125973), vemurafenib (NSC761431), MSA-2 (NSC828583), SN-011 (NSC837082), adavosertib (NSC754352), prexasertib (NSC758257), carboplatin (NSC241240) and oxaliplatin (NSC266046), were obtained from the National Cancer Institute (NCI) Developmental Therapeutics Program Chemical Repository (21). The FDA-approved anticancer drug set is available from the Developmental Therapeutics Program at https://dtp.cancer.gov/organization/dscb/obtaining/. […] The stock solutions were prepared in dimethyl sulfoxide (DMSO, Sigma-Aldrich, St. Louis, MO, cat. D2650), except for the platinum compounds which were prepared in saline (Quality Biological, Gaithersburg, MD, cat. 114-055-101), at 800-fold the tested concentration and stored at -70 degrees C prior to their use. All drugs and investigational agents were tested over a range starting from a high concentration at or near the clinical Cmax and decreasing in half-log increments. If the clinical Cmax for an agent had not been determined, the highest concentration tested was 10 microM, except for SN-38, which was tested at a high concentration of 1 microM.
Cell Culture. All cells were maintained in an incubator at 37 degrees C and 5% CO2 with 95% humidity. The PDC lines were cultured according to standard operating procedures established by the NCI PDMR (https://pdmr.cancer.gov). Table 3 of the manuscript, lists the cell lines along with the number of the three cell types plated to form the mct-spheroids and media for tumor cell growth. After thawing, all PDC lines, except 997537-175-T-J1-PDC and 415267-285-R-J2-PDC, were cultured in Matrigel-coated flasks prepared with a working solution of 1X Ham's F-12 nutrient mix, without supplementation (Thermo Fisher Scientific, cat. 11765054), 100 U/mL penicillin-streptomycin (Thermo Fisher Scientific, cat. 15140122), and 2.5% Matrigel (Corning Inc., Corning, NY, cat. 354248) for the first three passages. The two PDC lines 997537-175-T-J1-PDC and 415267-285-R-J2-PDC were cultured on uncoated flasks. The 857933-349-R-J2-PDC line was cultured in 6C/Colon 1B media containing advanced DMEM/F-12 (Thermo Fisher Scientific, cat. 12634028), 10 mM HEPES (Thermo Fisher Scientific, cat. 15630080), 1X GlutaMAX supplement (Thermo Fisher Scientific, cat. 35050061), 0.1 mg/mL primocin (InvivoGen, San Diego, CA, cat. ant-pm-2), 10% defined fetal bovine serum, heat inactivated (HyClone Laboratories Inc., Logan, UT, cat. SH30070.03HI), 50% L-WRN conditioned media (ATCC, cat. CRL-3276), 1.25 mM N-Acetyl-L-cysteine (Sigma-Aldrich, cat. A9165), 10 mM nicotinamide (Sigma-Aldrich, cat. N0636), 1X B-27 supplement (Thermo Fisher Scientific, cat. 17504044), 1X N-2 supplement (Thermo Fisher Scientific, cat. […]
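Note: spheroids exposed to compounds for one week.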
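Throughout, for viability, T/C: 100% = vehicle DMSO treated spheroids.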

For CC(=O)O[C@H]1C(=O)[C@@]2(C)[C@H]([C@H](OC(=O)c3ccccc3)[C@]3(O)C[C@H](OC(=O)[C@H](O)[C@@H](NC(=O)c4ccccc4)c4ccccc4)C(C)=C1C3(C)C)[C@]1(OC(C)=O)CO[C@@H]1C[C@@H]2O + COC1C(OC(N)=O)C(O)C(Oc2ccc3c(O)c(NC(=O)c4ccc(O)c(CC=C(C)C)c4)c(=O)oc3c2C)OC1(C)C, the IC50 (second compound 0.0316 µM) was under 9.49 nM, the IC50 (second compound 0.1 µM) was under 9.49 nM and the IC50 (second compound 0.316 µM) was under 9.49 nM. The IC50 (second compound 1 µM) was under 9.49 nM, the IC50 (second compound 3.16 µM) was under 9.49 nM and the IC50 (second compound 10 µM) was under 9.49 nM. The viability, T/C (second compound 0.0316 µM, first compound 0.00949 µM) was 44.6%, the viability, T/C (second compound 0.0316 µM, first compound 0.03 µM) was 22.1% and the viability, T/C (second compound 0.0316 µM, first compound 0.0949 µM) was 16.2%. It also gave a viability, T/C (second compound 0.0316 µM, first compound 0.3 µM) of 16.4%, a viability, T/C (second compound 0.0316 µM, first compound 0.949 µM) of 13.5% and a viability, T/C (second compound 0.0316 µM, first compound 3 µM) of 19.1%. It also gave a viability, T/C (second compound 0.1 µM, first compound 0.00949 µM) of 41.2%, a viability, T/C (second compound 0.1 µM, first compound 0.03 µM) of 23.5% and a viability, T/C (second compound 0.1 µM, first compound 0.0949 µM) of 20.2%. For the same compound, the viability, T/C (second compound 0.1 µM, first compound 0.3 µM) was 14.9%, the viability, T/C (second compound 0.1 µM, first compound 0.949 µM) was 13.6% and the viability, T/C (second compound 0.1 µM, first compound 3 µM) was 17.5%. It also gave a viability, T/C (second compound 0.316 µM, first compound 0.00949 µM) of 36.8%, a viability, T/C (second compound 0.316 µM, first compound 0.03 µM) of 21.3% and a viability, T/C (second compound 0.316 µM, first compound 0.0949 µM) of 16.8%. The viability, T/C (second compound 0.316 µM, first compound 0.3 µM) was 11.9%, the viability, T/C (second compound 0.316 µM, first compound 0.949 µM) was 13.9% and the viability, T/C (second compound 0.316 µM, first compound 3 µM) was 16.9%. It also gave a viability, T/C (second compound 1 µM, first compound 0.00949 µM) of 37.8%, a viability, T/C (second compound 1 µM, first compound 0.03 µM) of 22.4% and a viability, T/C (second compound 1 µM, first compound 0.0949 µM) of 17.8%. The viability, T/C (second compound 1 µM, first compound 0.3 µM) was 15.2%, the viability, T/C (second compound 1 µM, first compound 0.949 µM) was 14% and the viability, T/C (second compound 1 µM, first compound 3 µM) was 18%. For the same compound, the viability, T/C (second compound 3.16 µM, first compound 0.00949 µM) was 37.8%, the viability, T/C (second compound 3.16 µM, first compound 0.03 µM) was 21.1% and the viability, T/C (second compound 3.16 µM, first compound 0.0949 µM) was 16.2%. The viability, T/C (second compound 3.16 µM, first compound 0.3 µM) was 15.4%, the viability, T/C (second compound 3.16 µM, first compound 0.949 µM) was 13.5% and the viability, T/C (second compound 3.16 µM, first compound 3 µM) was 17.7%. The viability, T/C (second compound 10 µM, first compound 0.00949 µM) was 45.5%, the viability, T/C (second compound 10 µM, first compound 0.03 µM) was 23.1% and the viability, T/C (second compound 10 µM, first compound 0.0949 µM) was 16.2%. It also gave a viability, T/C (second compound 10 µM, first compound 0.3 µM) of 13.2%, a viability, T/C (second compound 10 µM, first compound 0.949 µM) of 14.3% and a viability, T/C (second compound 10 µM, first compound 3 µM) of 16.5%.
